# From PubChem BioAssay (NCI)
# Values joined by “and” are separate entries in the source; they are usually repeats but may differ in a detail not shown here. Equal values may be shown once.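 96-well plates; 48 h exposure; 5 concentrations. Endpoints by linear interpolation between flanking doses. Not reached: highest tested concentration assigned. GI50 marks 50% less growth. Definition used: TGI = concentration required for complete inhibition of growth.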
# What was measured:
# Test in all cases: NCI tumour cell line growth inhibition, 48 h
# CAKI-1 renal = tested on: CAKI-1 renal
# LOX IMVI melanoma = tested on: LOX IMVI melanoma
# MALME-3M melanoma = tested on: MALME-3M melanoma
# MCF7 breast = tested on: MCF7 breast
# NCI-H23 lung = tested on: NCI-H23 lung
# NCI-H522 lung = tested on: NCI-H522 lung
# OVCAR-3 ovarian = tested on: OVCAR-3 ovarian
# SF-268 CNS = tested on: SF-268 CNS
# SF-539 CNS = tested on: SF-539 CNS
# SK-MEL-28 melanoma = tested on: SK-MEL-28 melanoma
SMILES,GI50 (CAKI-1 renal),TGI (CAKI-1 renal),GI50 (LOX IMVI melanoma),TGI (LOX IMVI melanoma),GI50 (MALME-3M melanoma),TGI (MALME-3M melanoma),GI50 (MCF7 breast),TGI (MCF7 breast),GI50 (NCI-H23 lung),TGI (NCI-H23 lung),GI50 (NCI-H522 lung),TGI (NCI-H522 lung),GI50 (OVCAR-3 ovarian),TGI (OVCAR-3 ovarian),GI50 (SF-268 CNS),TGI (SF-268 CNS),GI50 (SF-539 CNS),TGI (SF-539 CNS),GI50 (SK-MEL-28 melanoma),TGI (SK-MEL-28 melanoma)
Cc1c(N2C(=O)/C(=C\c3ccc(N(C)C)cc3)N=C2c2ccccc2)c(=O)n(-c2ccccc2)n1C,> 100 µM,> 100 µM,> 94.4 µM,> 100 µM,> 100 µM,> 100 µM,25.7 µM,> 100 µM,> 92.2 µM,> 100 µM,67.8 µM,> 100 µM,> 70.6 µM,> 100 µM,> 76.9 µM,> 100 µM,> 100 µM,> 100 µM,> 100 µM,> 100 µM
Cc1cc2nc3c4ccccc4n(CCN(C)C)c3nc2cc1C,0.982 µM,12.2 µM,0.748 µM,3.68 µM,1.41 µM,2.74 µM,1.41 µM,7.14 µM,1.87 µM,5.7 µM,0.673 µM,3.24 µM,1.91 µM,7.28 µM,1.45 µM,5.86 µM,1.83 µM,4.66 µM,2.09 µM,4.73 µM
C[C@@H](Oc1cc(-c2cnn(C3CC4(CCCNC4)C3)c2)cnc1N)c1c(Cl)ccc(F)c1Cl (stereo not given in full),2.08 µM,6.62 µM,1.17 µM,2.5 µM,1.3 µM,3.12 µM,0.363 µM,1.85 µM,1.14 µM,3.41 µM,1.35 µM,2.79 µM,2.02 µM,5.08 µM,1.81 µM,6.02 µM,1.59 µM,3.02 µM,1.54 µM,3.03 µM
CC(=O)OCC(=O)C1(O)C(C)CC2C3C=C(C)C4=Cc5c(cnn5-c5ccccc5)CC4(C)C3C(O)CC21C (stereo not given),2.35 µM,10.1 µM,1.69 µM,4.82 µM,1.5 µM,5.2 µM,1.47 µM,5.22 µM,2.2 µM,5.78 µM,1.97 µM,5.24 µM,1.67 µM,3.96 µM,1.64 µM,11.4 µM,0.439 µM,2.41 µM,1.41 µM,3.01 µM
COC(=O)Nc1nc2ccc(Sc3ccccc3)cc2[nH]1,0.225 µM,> 43.5 µM,0.487 µM,17.2 µM,0.444 µM,18.8 µM,0.0666 µM,26 µM,0.29 µM,31 µM,0.113 µM,0.587 µM,0.123 µM,0.421 µM,1.44 µM,26.9 µM,0.234 µM,0.933 µM,0.387 µM,15.5 µM
CC[C@@]1(OC(=O)CN)C(=O)OCc2c1cc1n(c2=O)Cc2cc3c(N)c4c(cc3nc2-1)OCO4,< 0.0001 µM,,< 0.0001 µM,,0.0124 µM,0.889 µM and 0.221 µM,< 0.0001 µM,,< 0.0001 µM,,0.00115 µM,0.146 µM,0.0352 µM and 0.0116 µM,0.481 µM and 0.336 µM,< 0.0001 µM,0.125 µM and 0.183 µM,< 0.0001 µM,0.000945 µM,0.0409 µM and 0.119 µM,> 100 µM
NC(=O)NC(=O)C1CCCCC1C(=O)O (stereo not given),,> 100 µM,,> 100 µM,,> 100 µM,,> 100 µM,,> 100 µM,,> 100 µM,,> 100 µM,,> 100 µM,,> 100 µM,,> 100 µM
C=C1C(=O)OC2CC3(C)OC3C3OC3C3=CC(OC3=O)C12 (stereo not given),1.48 µM,3 µM,4.18 µM,12.1 µM,2.12 µM,4.19 µM,6.05 µM,27.6 µM,13.4 µM,32.6 µM,0.299 µM,0.904 µM,2.03 µM,3.61 µM,19 µM,38 µM,4.43 µM,16.7 µM,5.75 µM,12.5 µM
CC(=O)/C=C/C1=C(c2ccsc2)c2ccccc2CC1,27.7 µM,83.4 µM,17.9 µM,31.9 µM,23.6 µM,58.1 µM,21.4 µM,40 µM,20.3 µM,39.6 µM,15.3 µM,31.3 µM,19.4 µM,39.7 µM,19.5 µM,41.1 µM,25.1 µM,60.7 µM,49.1 µM,> 100 µM
ClC1=C(Cl)C(Cl)=C(Cl)C1=Cc1ccc(Cl)cc1,0.429 µM,,0.233 µM,0.71 µM,1.42 µM,3.6 µM,0.386 µM,1.79 µM,0.796 µM,2.85 µM,0.23 µM,0.655 µM,0.309 µM,0.853 µM,0.419 µM,1.1 µM,0.733 µM,2.18 µM,1.4 µM,2.8 µM
